Laboratory results reported in patent publication US20080160553A1, “Method of preparing heart muscle cells and method of searching for remedy for heart diseases” (Takeda Pharmaceutical Company Limited, priority 2000, published 2008).

Key:
[1] = tested on: heart muscle cells of rat newborns; test: Inhibition of serum-removal-induced apoptosis of heart muscle cells, present detection method (serum re-added, about 17 h) with MTT; type: cell-based; settings: 1000 U/ml hLIF, 4 days serum-free, then 10% serum about 17 h, MTT as coloration substrate
Procedure: (§1) The heart muscle cells obtained by the method of the invention are adjusted to a cell density of 3×10^4 cells/well (96-wells plate) and cultured in serum-free medium such as Medium 199 in a CO2 incubator set at 5% CO2, 37° C. for 4 days, thus inducing apoptosis to reduce the survival rate of the heart muscle cells to 50% or less.
(§2) Serum such as FCS is added at a final concentration of 10% to the culture, which is then cultured for about 17 hours and measured for its dehydrogenase activity (reduction activity) with MTT or WST-8 as the coloration substrate, to determine the number of viable cells.
Using the heart muscle cells of rat newborns obtained by the present method of preparing heart muscle cells as described in Example 1, their apoptosis was induced by removing serum from the culture, and the inhibitory action of recombinant human leukemia inhibitory factor (hLIF, produced by Peprotech) on the apoptosis was detected by the conventional method with MTT as the coloration substrate and by the present method of detecting apoptosis with WST-8 or MTT as the coloration substrate, and the sensitivity of the two methods was compared. […]

[2] = tested on: heart muscle cells of rat newborns; test: Inhibition of serum-removal-induced apoptosis of heart muscle cells, conventional MTT reduction method (no serum re-addition); type: cell-based; settings: 1000 U/ml hLIF, 4 days serum-free, MTT as coloration substrate
Source text: (§3) Using the heart muscle cells of rat newborns obtained by the present method of preparing heart muscle cells as described in Example 1, their apoptosis was induced by removing serum from the culture, and the inhibitory action of recombinant human leukemia inhibitory factor (hLIF, produced by Peprotech) on the apoptosis was detected by the conventional method with MTT as the coloration substrate and by the present method of detecting apoptosis with WST-8 or MTT as the coloration substrate, and the sensitivity of the two methods was compared.
First, the muscle cells obtained in the method of preparing heart muscle cells according to the invention were suspended at a density of 3×10^5 cells/ml in Medium 199 containing 10% fetal calf serum, put onto a 96-wells plate in a volume of 0.1 ml/well, and then cultured for 1 day in a CO2 incubator set at 5% CO2, 37° C. […] In the conventional method, the number of viable cells in the culture was measured directly with MTT as the coloration substrate. In the method of the invention, on the other hand, fetal calf serum was added thereto at a concentration of 10%, and the cells were further cultured for about 17 hours in a CO2 incubator set at 5% CO2, 37° C., and the number of viable cells was determined by using WST-8 or MTT as the coloration substrate.

[3] = tested on: heart muscle cells of rat newborns; test: Inhibition of serum-removal-induced apoptosis of heart muscle cells, present detection method (serum re-added, about 17 h) with WST-8; type: cell-based; settings: 1000 U/ml hLIF
Procedure: as §1, §2, §3
First, the muscle cells obtained in the method of preparing heart muscle cells according to the invention were suspended at a density of 3×10^5 cells/ml in Medium 199 containing 10% fetal calf serum, put onto a 96-wells plate in a volume of 0.1 ml/well, and then cultured for 1 day in a CO2 incubator set at 5% CO2, 37° C. The plate was stirred with a micromixer (Taiyo Kagaku Kogyo Co., Ltd.) and the medium was exchanged 3 times with serum-free Medium 199, followed by adding 0 to 1000 U/ml hLIF. The culture was incubated for additional 4 days to induce apoptosis. In the conventional method, the number of viable cells in the culture was measured directly with MTT as the coloration substrate. In the method of the invention, on the other hand, fetal calf serum was added thereto at a concentration of 10%, and the cells were further cultured for about 17 hours in a CO2 incubator set at 5% CO2, 37° C., and the number of viable cells was determined by using WST-8 or MTT as the coloration substrate. […]
First, the heart muscle cells obtained in the method described in Example 1 were suspended at a density of 3×10^5 cells/ml in Medium 199 containing 10% fetal bovine serum, and put in a volume of 0.1 ml/well onto each well of 2nd to 11th rows on each of three 96-wells plates. […] The cells were cultured for 4 days to induce apoptosis, and fetal calf serum was added at a concentration of 10%, and the cells were cultured for additional 17 hours in a CO2 incubator set at 5% CO2, 37° C., and then the number of viable cells was counted with WST-8 as the coloration substrate.

[4] = tested on: heart muscle cells; settings: by activating Akt; cited from earlier work

| Substance | increase in absorbance relative to control group [1] | increase in the average absorbance as compared with the control group [2] | increase in average absorbance relative to control group ([3]; 4 days serum-free, then 10% serum about 17 h, WST-8 as coloration substrate) | average absorbance (number of viable cells) ([3]; plate 1, WST-8, control 0.22±0.039) | average absorbance (number of viable cells) ([3]; plate 2, WST-8, control 0.15±0.028) | average absorbance (number of viable cells) ([3]; plate 3, WST-8, control 0.13±0.020) | effect on apoptosis of heart muscle cells [4] |
| --- | --- | --- | --- | --- | --- | --- | --- |
| hLIF: recombinant human leukemia inhibitory factor (hLIF, produced by Peprotech) | ~0.1 | ≤ 0.03 | ≥ 0.3 | 0.54±0.055 | 0.45±0.035 | 0.43±0.059 | – |
| hIGF-1: recombinant human IGF-1 (hIGF-1, produced by Peprotech) | – | – | – | – | – | – | inhibit apoptosis of heart muscle cells |
